Test results taken from PubChem BioAssay AID2305 (GlaxoSmithKline (GSK), 2010).
pIC50: −log10 of the molar value. “And” between values parts separate entries of the source, which are not always exact repeats. Identical values can stand only once.

System: P. falciparum 3D7 growth, pLDH absorbance
Test: blood-stage malaria parasite growth potency – strain 3D7, dose response (AID 2305)

SMILES | pIC50
CC[C@H]1CN2CCc3c([nH]c4ccccc34)[C@@H]2C[C@@H]1CC1c2cc(OC)c(OC)cc2CCN1C (stereo partly drawn) | 5.96
CC(=O)Nc1ccc(C#Cc2ccc(-c3c(C)[nH]c(C)c(Cl)c3=O)cc2)cc1 | 6.34
Cc1nc(-c2ccc(-c3ccc(C(=O)Nc4ccc5c(c4)C4(CCNCC4)CO5)cc3)c(C)c2)no1 | 6.07
O=C(Nc1cc(F)cc(F)c1)N1CCOC(CCN2CCC3(CCc4ccccc43)CC2)(c2ccc(Cl)c(Cl)c2)C1 (stereo not drawn) | 6.55
COc1ccc2nccc([C@@H](O)CN3CCC(CO)(NCc4cc5ccccc5o4)CC3)c2c1 | 5.86
CN(C)S(=O)(=O)c1ccc(N2C(=O)[C@@H]3[C@H](C2=O)[C@@]2(c4ccccc4)C(=O)[C@]3(c3ccccc3)C(c3ccccc3)=C2c2ccccc2)cc1 | 6.02
CCC(CC)(Cc1ccccc1)NC(=O)[C@H](CC(C)C)Nc1ccc(C#N)c2ccccc12 | 6.04
Fc1cc(Cl)ccc1Nc1ccnc2cc(I)ccc12 | 5.95
COc1cccc(-c2cc(C(=O)Nc3cc(Oc4ccc(O)cc4)cc([N+](=O)[O-])c3)on2)c1 | 5.98
COc1ccc(OCCCON)cc1 | 6.77
CCCNCc1ccc(-c2ccc(CN(Cc3cccs3)C(=O)C3CCN(C)CC3)cc2)nc1 | 6.18
CCOC(=O)c1ccc(NC(=O)N(Cc2ccc(-c3cccc(CN4CCNCC4)c3)cc2)C2CCN(Cc3ccccc3)CC2)cc1 | 6.12
COCCOc1cc(C)c(C2CCN(CCCCNC(=O)c3ccc(NC(=O)c4ccc(Cl)cc4)cc3)CC2)cc1C | 6.02
Nc1nc(N)c2cc(Cc3ccccc3Cl)cnc2n1 | 6.96
CC(C)CNCc1cccc(-c2ccc(CN(C(=O)NC3CCCCC3)C3CCN(Cc4ccccc4)CC3)cc2)c1 | 6.12
Nc1cccc(CNCc2cccc(-c3ccc(-c4nc5ccccc5[nH]4)cc3)c2)c1 | 6.38
NS(=O)(=O)c1cccc(-c2ccc3c(=O)[nH]cnc3c2)c1 | 6.02
COc1ccc(CCN(C)CCCN2CCC(NC(=O)c3cccc4c(=O)c5ccccc5[nH]c34)CC2)cc1OC | 6.16
CCOc1ccc(-c2nonc2NC(=O)c2ccc(Cl)cc2)cc1OCC | 6.00
Cc1ccc(Cn2nc(Cl)c(N3CCNCC3)cc2=O)cc1NC(=O)Nc1ccc(-c2ccccc2)cc1 | 6.17
Cc1nc2c(c(O)c1Cl)-c1ccc(Oc3cccc(C(F)(F)F)c3)cc1C2=O | 7.40
COc1ccc2nccc([C@@H](O)CN3CCC(NCc4cc5cc(Cl)ccc5[nH]4)CC3)c2c1 | 6.89
CCc1nc(N)nc(N)c1-c1ccc(Cl)cc1 | 7.22 and 7.52
Cc1[nH]c(C)c(-c2ccc(-c3ccc(Cl)cc3)nc2)c(=O)c1Br | 6.96
Cc1ccc(NC(=O)c2cccc(C#N)c2)cc1-c1ccc(C(=O)Nc2ccncc2)cc1 | 6.16

SMILES | pIC50
NC(=NCCc1ccc(Cl)c(Cl)c1)c1ccc2ccccc2c1 | 6.29
CCCCCCOc1ccc(C(N)=NCc2ccccc2)c2c1CCCC2 | 5.90
CCC(=O)c1c(C)n(-c2ncnc3c2nc(C)n3-c2ccc(C)cc2C)c2ccccc12 | 6.19
O=C(NC1CCN(Cc2ccccc2)CC1)c1cc(-c2cccnc2)nc2ccc(Cl)cc12 | 6.12
c1ccc2c(c1)ncn2-c1ccnc(Nc2ccncc2)n1 | 6.19
FC(F)(F)c1ccc2nc(-c3ccc(-c4ccc(CNCc5cnn(-c6ccccc6)n5)cc4)cc3)[nH]c2c1 | 6.37
COc1ccc2nccc(NN=CC=Cc3ccccc3)c2c1 | 6.13
COc1ccc(-c2ccc(S(=O)(=O)Nc3cc4c(cc3OC(C)C)CCN(C)CC4)cc2)cc1 | 6.16
CC(Cc1ccc(OCCOc2ccccc2)cc1)NCC(O)c1cccc(C(F)(F)F)c1 (stereo not drawn) | 6.01
CC(=O)N(C)c1cccc(C(=O)Nc2cccc(-c3cccc(-c4nc5c(C)cccc5[nH]4)c3)c2)c1 | 6.21
Cc1cccc2[nH]c(-c3cccc(-c4cccc(NC(=O)c5ccncc5)c4)c3)nc12 | 6.62
c1cc(CN2CCCCC2)cc(-c2cccc(-c3nc4ccccc4[nH]3)c2)c1 | 6.08
CO/C(=C\C=C\c1cc2cc(Cl)c(Cl)cc2[nH]1)C(=O)NCCCN(C)CCN(C)c1ccccc1 | 6.08
COc1ccc(-c2cccc(NC(=O)c3cccc(C#N)c3)c2)cc1CN1CCC(O)CC1 | 6.00
N[C@@H](CCNCc1ccc(-c2cccnc2)cc1)Cc1ccc(F)c(F)c1 | 6.10
COc1ccc2c(OC)c(CNCCCCCCNCc3ccc4cc(OC)ccc4c3OC)ccc2c1 | 6.04
COc1ccc(-c2cccc(NC(=O)c3cccc(Cl)c3)c2)cc1CN(C)CCN(C)C | 6.09
O=C(Cc1ccccc1)NC(c1ccccc1)c1ccc2cccnc2c1O (stereo not drawn) | 6.02
COc1nc2c(CCN3CC[C@H](NCc4cc(C#N)c5c(c4)OCCO5)[C@H](O)C3)ccnc2cc1F | 6.11
O=C(C=Cc1ccc(Cl)c(Cl)c1)NCCCCCN1CCC(CCNC(=O)c2cccc3ccccc23)CC1 | 5.80
COc1ccc(O)c(-c2sc(N=C(N)N)nc2-c2ccccc2)c1 | 6.43
CCN(C(=O)c1ccc(NC(=O)c2cccs2)cc1)c1nc2c(C)cccc2s1 | 6.07
CCOC(=O)c1cnc2c(OC)cc(OC)c(Cl)c2c1Nc1ccccc1 | 6.06
O=C(NC12CC3CC(CC(C3)C1)C2)C(=O)c1c[nH]c2ccccc12 | 6.64
O=C(Nc1cccc(Oc2ccccc2)c1)N[C@H]1CCN(Cc2ccc(OCCCN3CCCCC3)cc2)C1 | 6.14

SMILES | pIC50
O=C(Nc1cccc(-c2cccc(-c3nc4ccccc4[nH]3)c2)c1)c1cccnc1 | 6.19
O=C(Cn1c(=O)cnc2ccccc21)Nc1cccc(C(=O)Nc2cccc(C(F)(F)F)c2)c1 | 6.55
Cc1nc2ccc(Nc3nccc(-c4c(-c5cccc(NC(=O)c6c(F)cccc6F)c5)nn5ccccc45)n3)cc2nc1C | 5.97
FC(F)(F)c1cccc(CCNc2nccc(NCc3ccc(Cl)cc3Cl)n2)c1 | 6.07
CCOC(=O)C1=C(C)N=c2sc(=Cc3cc(Cl)ccc3O)c(=O)n2C1c1ccc2c(c1)OCO2 (stereo not drawn) | 6.15
CCCCc1ccc(C(=O)Nc2ccc3nc(N4CCN(CC)CC4)cc(C)c3c2)cc1 | 6.04
CC(C)C[C@@H](NC(=O)OC(C)(C)C)C(=O)Nc1ccc(Cc2ccc(NC(=O)[C@@H](CC(C)C)NC(=O)OC(C)(C)C)cc2)cc1 | 6.68
O=C(NCCNc1ccnc(Nc2ccc(F)cc2)n1)Nc1ccccc1F | 6.12
Fc1ccc2nc(-c3ccc(-c4ccc(CNCCN5CCNCC5)cc4)cc3)[nH]c2c1 | 6.07
N#Cc1cccc(NC(=O)c2cccc(S(=O)(=O)NC3CCN(CC4CCCCC4)C3)c2)c1 (stereo not drawn) | 6.24
C#CCCC(=O)Nc1cccc(-c2cccc(-c3nc4c(C)cccc4[nH]3)c2)c1 | 6.13
FC(F)(F)c1ccc2nc(-c3cccc(-c4ccc(CNCc5cnn(-c6ccccc6)n5)cc4)c3)[nH]c2c1 | 5.88
CCCCNc1cc(C)nc(NCc2ccccc2)n1 | 6.01
CN1CCC(Oc2ccc(CN3CC[C@H](NC(=O)c4cc(F)cc(F)c4)C3)c3ccccc23)C1 (stereo partly drawn) | 6.08
COc1ccc2nccc([C@@H](O)CN3CCC(NC(=O)c4cccc(C(=O)c5ccccc5)c4)CC3)c2c1 | 6.16
CCc1c(C)nc(-n2nc(C)cc2NC(=O)CCc2ccccc2)[nH]c1=O | 6.12
CC(C)(C)c1ccc(-c2nc3c(ccc4nc(N)nc(N)c43)[nH]2)cc1 | 6.80
CCC(C)NC(=O)CN1CN(c2ccccc2)C2(CCN(C(=O)c3ccc(-c4ccccc4)cc3)CC2)C1=O (stereo not drawn) | 6.89
Cc1ccc(CNC(=O)[C@H](CC(C)C)Nc2cc(C)nc(NCc3ccccc3C)n2)cc1 | 6.02
O=C(Nc1cccc(F)c1)NC1CCN(c2ccnc3cc(Cl)ccc23)CC1 | 6.21
Cc1noc(-c2ccc(N3CCC(C(=O)N4CCN(C(C)C)CC4)CC3)cc2)n1 | 5.97
Cc1cccc(-n2c(Nc3ccc(C)c(Cl)c3)nc3ccc(S(=O)(=O)NC(C)C(C)C)cc32)c1 (stereo not drawn) | 6.19
O=C(Nc1cccc(CN2CCCN(Cc3cccc(O)c3)CC2)c1)c1cc2ccccc2s1 | 6.44
CCCCCCOc1ccc(C(=O)NCCCC2CCN(CCCCCNC(=O)C=Cc3ccc(Cl)c(Cl)c3)CC2)cc1 | 6.07
Cc1cccc2sc(N(CCCn3ccnc3)C(=O)C=Cc3cccs3)nc12 | 5.89

SMILES | pIC50
O=C(CCc1cnc[nH]1)Nc1cccc(-c2cccc(-c3nc4ccc(C(F)(F)F)cc4[nH]3)c2)c1 | 6.89
Oc1ccc(CCNCCCCCCNCCc2ccc(Cl)c(Cl)c2)cc1O | 6.14
COc1cc(Nc2nccc(N3CCC(NC(=O)c4cccc(NC(C)=O)c4)C3)n2)cc(OC)c1OC (stereo not drawn) | 6.08
CCc1ccc(NC(=O)c2ccc(CN3CCCN(Cc4cccc(C)c4)CC3)cc2)cc1 | 5.95
COCCOCCOCCn1ccc2c3c(N)nc(N)nc3ccc21 | 6.59
N#Cc1cccc(C(=O)Nc2cccc(-c3ccc(C(=O)NCCCN4CCOCC4)cc3)c2)c1 | 6.12
Cc1cccc2[nH]c(-c3ccc(-c4ccc(CNCC(C)C)cc4)cc3)nc12 | 6.39
Cn1nccc1C(=O)NCCNCc1cccc(-c2csc(-c3nc4ccccc4[nH]3)c2)c1 | 6.08
Cc1cc(NCCC(=O)Nc2ccccc2)nc(NCCOc2ccccc2)n1 | 5.94
CCCCCCCCc1c(C)[nH]c(C)c(I)c1=O | 6.13
CC(=O)Nc1ccc(CNCCc2ccc(NC(=O)c3cc(Cl)cc(Cl)c3)cc2)cc1 | 6.17
COc1cc2nc(Nc3ccc4c(c3)OCCO4)nc(N)c2cc1OC | 6.33
COc1ccc2c(Nc3ccc(N4CCN(C)CC4)cc3)cc(C)nc2c1 | 6.14
Cc1cc(=O)c(-c2ccc(Sc3ccc(Cl)cc3)cc2)c(C)[nH]1 | 6.01
O=C(O[C@@H]1CN[C@H](C#Cc2cc3ncnc(Nc4ccc5c(cnn5Cc5cccc(F)c5)c4)c3s2)C1)N1CCCC1 | 6.12
CCCCNCc1ccc(-c2nc(CN(Cc3ccc(Cl)c(Cl)c3)C(=O)CN(C)C)cs2)cc1 | 6.10
COc1cc(N(C)Cc2cnc3nc(N)nc(N)c3n2)cc(OC)c1OC | 6.36
Cc1ccc2c(c1C)NC(=O)C21NN=C(c2ccccc2)S1 (stereo not drawn) | 6.12
O=C(c1ccc([N+](=O)[O-])o1)N1CCC(c2cn(Cc3cccc(F)c3)c3ccccc23)CC1 | 6.19
O=C1CCCN1CCCNCc1cccc(-c2ccc(-c3nc4ccc(C(F)(F)F)cc4[nH]3)cc2)c1 | 6.52
Cc1c(C)n(C2CCCC2)c2ncnc(OC3CCN(CC(=O)NCC4CC4)CC3)c12 | 6.05
CN(C)CCOc1cc(NC(=O)Nc2ccc(-c3ccccc3)cc2)ccc1I | 6.22
Cc1ccc(-c2cccc3c(NC(=O)Nc4ccc5nccc(N6CCN(C)CC6)c5c4)cccc23)cn1 | 6.46
